Literature values in patent US20090110646A1, “Product for Treating the Skin and Mucous Membranes, and Relative Method of Preparation” (priority 2005, published 2009).

For `O=C(O)C(Cl)(Cl)Cl` [TCA, trichloracetic acid], the “depth of dermal necrosis” value (solution of TCA at about 30-40% w/w) is listed as 0.3-0.5 mm, the effect on skin (solution of TCA in a concentration of less than 25% w/w) is listed as “exfoliation of the epidermis” and the “time of eschar (crust) until skin renewal” value (very concentrated TCA) is listed as 7 to 10 days.
